# Data taken from ChEMBL document CHEMBL3352216, “Triterpene glycosides from red ginseng marc and their anti-inflammatory activities” (Bioorg Med Chem Lett, 2014).
# Calls of active or inactive are those of the source. No cut-off for these calls is given here.
# Key:
# [1] = test system: RAW264.7; test: Antiinflammatory activity in LPS-stimulated mouse RAW264.7 cells assessed as reduction in nitric oxide production at 10 uM after 24 hrs by Griess method based ELISA (reference value: 52.4 +/- 0.9 uM); format: functional
# [2] = test system: RAW264.7; test: Antiinflammatory activity in LPS-stimulated mouse RAW264.7 cells assessed as reduction in TNFalpha expression at 20 uM co-incubated with LPS for 24 hrs by RT-PCR method relative to untreated control; format: functional
# [3] = test system: RAW264.7; test: Antiinflammatory activity in LPS-stimulated mouse RAW264.7 cells assessed as reduction in IL6 expression at 20 uM co-incubated with LPS for 24 hrs by RT-PCR method relative to untreated control; format: functional
# [4] = test system: RAW264.7; test: Antiinflammatory activity in LPS-stimulated mouse RAW264.7 cells assessed as reduction in COX2 expression at 10 uM co-incubated with LPS for 24 hrs by RT-PCR method relative to untreated control; format: functional
# [5] = test system: RAW264.7; test: Induction of iNOS mRNA expression in LPS-non-stimulated mouse RAW264.7 cells by RT-PCR method; format: cell-based
# [6] = test system: RAW264.7; test: Antiinflammatory activity in LPS-stimulated mouse RAW264.7 cells assessed as reduction in IL6 expression at 10 uM co-incubated with LPS for 24 hrs by RT-PCR method relative to untreated control; format: functional
# [7] = test system: RAW264.7; test: Antiinflammatory activity in LPS-stimulated mouse RAW264.7 cells assessed as reduction in iNOS expression co-incubated with LPS for 24 hrs by RT-PCR method relative to untreated control; format: functional, cell-based
# [8] = test system: RAW264.7; test: Antiinflammatory activity in LPS-stimulated mouse RAW264.7 cells assessed as reduction in iNOS expression at 30 uM co-incubated with LPS for 24 hrs by RT-PCR method relative to untreated control; format: functional
# [9] = test system: RAW264.7; test: Antiinflammatory activity in LPS-stimulated mouse RAW264.7 cells assessed as reduction in IL-1beta expression at 10 uM co-incubated with LPS for 24 hrs by RT-PCR method relative to untreated control; format: functional
# [10] = Cytotoxicity against LPS-stimulated mouse RAW264.7 cells assessed as cell viability at 20 uM after 24 hrs by MTT assay (reference value: 100%); format: cell-based; details: LPS-stimulated RAW264.7 cells, read-out: Activity
# [11] = Cytotoxicity against LPS-stimulated mouse RAW264.7 cells assessed as cell viability at 10 uM after 24 hrs by MTT assay (reference value: 100%); format: cell-based; details: LPS-stimulated RAW264.7 cells, read-out: Activity
# [12] = test system: RAW264.7; test: Antiinflammatory activity in LPS-stimulated mouse RAW264.7 cells assessed as reduction in iNOS expression at 10 uM co-incubated with LPS for 24 hrs by RT-PCR method relative to untreated control; format: functional
# [13] = test system: RAW264.7; test: Antiinflammatory activity in LPS-stimulated mouse RAW264.7 cells assessed as reduction in nitric oxide production at 20 uM after 24 hrs by Griess method based ELISA (reference value: 52.4 +/- 0.9 uM); format: functional
# [14] = test system: RAW264.7; test: Antiinflammatory activity in LPS-stimulated mouse RAW264.7 cells assessed as reduction in TNFalpha expression at 10 uM co-incubated with LPS for 24 hrs by RT-PCR method relative to untreated control; format: functional
# [15] = test system: RAW264.7; test: Antiinflammatory activity in LPS-stimulated mouse RAW264.7 cells assessed as reduction in TNFalpha level at 10 to 40 uM co-incubated with LPS for 24 hrs by ELISA method; format: functional, cell-based
# [16] = Cytotoxicity against LPS-stimulated mouse RAW264.7 cells assessed as cell viability at 40 uM after 24 hrs by MTT assay (reference value: 100%); format: cell-based; details: LPS-stimulated RAW264.7 cells, read-out: Activity
# [17] = test system: RAW264.7; test: Antiinflammatory activity in LPS-stimulated mouse RAW264.7 cells assessed as reduction in IL6 expression at 30 uM co-incubated with LPS for 24 hrs by RT-PCR method relative to untreated control; format: functional
# [18] = test system: RAW264.7; test: Antiinflammatory activity in LPS-stimulated mouse RAW264.7 cells assessed as reduction in IL-1beta expression at 20 uM co-incubated with LPS for 24 hrs by RT-PCR method relative to untreated control; format: functional
# [19] = test system: RAW264.7; test: Antiinflammatory activity in LPS-stimulated mouse RAW264.7 cells assessed as reduction in IL-1beta expression at 30 uM co-incubated with LPS for 24 hrs by RT-PCR method relative to untreated control; format: functional
# [20] = test system: RAW264.7; test: Antiinflammatory activity in LPS-stimulated mouse RAW264.7 cells assessed as reduction in COX2 expression at 30 uM co-incubated with LPS for 24 hrs by RT-PCR method relative to untreated control; format: functional
# [21] = test system: RAW264.7; test: Antiinflammatory activity in LPS-stimulated mouse RAW264.7 cells assessed as reduction in iNOS expression at 20 uM co-incubated with LPS for 24 hrs by RT-PCR method relative to untreated control; format: functional
# [22] = test system: RAW264.7; test: Antiinflammatory activity in LPS-stimulated mouse RAW264.7 cells assessed as reduction in COX2 expression at 20 uM co-incubated with LPS for 24 hrs by RT-PCR method relative to untreated control; format: functional
# [23] = test system: RAW264.7; test: Antiinflammatory activity in LPS-stimulated mouse RAW264.7 cells assessed as reduction in nitric oxide production at 40 uM after 24 hrs by Griess method based ELISA (reference value: 52.4 +/- 0.9 uM); format: functional
# [24] = test system: RAW264.7; test: Antiinflammatory activity in LPS-stimulated mouse RAW264.7 cells assessed as reduction in nitric oxide production after 24 hrs by Griess method based ELISA; format: functional, cell-based; details: RAW264.7, 24 h
# [25] = test system: RAW264.7; test: Antiinflammatory activity in LPS-stimulated mouse RAW264.7 cells assessed as reduction in TNFalpha expression at 30 uM co-incubated with LPS for 24 hrs by RT-PCR method relative to untreated control; format: functional
# [26] = Cytotoxicity against LPS-stimulated mouse RAW264.7 cells assessed as cell viability at 80 uM after 24 hrs by MTT assay (reference value: 100%); format: cell-based; details: LPS-stimulated RAW264.7 cells, read-out: Activity
# [27] = test system: RAW264.7; test: Antiinflammatory activity in LPS-stimulated mouse RAW264.7 cells assessed as reduction in nitric oxide production at 120 uM after 24 hrs by Griess method based ELISA (reference value: 52.4 +/- 0.9 uM); format: functional
# [28] = Cytotoxicity against LPS-stimulated mouse RAW264.7 cells assessed as cell viability at 120 uM after 24 hrs by MTT assay (reference value: 100%); format: cell-based; details: LPS-stimulated RAW264.7 cells, read-out: Activity
# [29] = test system: RAW264.7; test: Antiinflammatory activity in LPS-stimulated mouse RAW264.7 cells assessed as reduction in nitric oxide production at 80 uM after 24 hrs by Griess method based ELISA (reference value: 52.4 +/- 0.9 uM); format: functional
structure (smiles),measurement,setting,value
C[C@@H]1[C@H]2[C@H]3C[C@H](O)[C@@H]4[C@@]5(C)CC[C@H](O[C@H]6O[C@H](CO[C@H]7O[C@H](CO[C@H]8O[C@H](CO[C@H]9O[C@H](CO)[C@@H](O)[C@H](O)[C@H]9O)[C@@H](O)[C@H](O)[C@H]8O)[C@@H](O)[C@H](O)[C@H]7O)[C@@H](O)[C@H](O)[C@H]6O)C(C)(C)[C@@H]5CC[C@@]4(C)[C@]3(C)CC[C@@]2(C)CC[C@H]1C,Activity,[1],46.4 µM
same,fold change (FC),[2],0.7
same,fold change (FC),[3],0.6
same,fold change (FC),[4],0.5
same,Activity,[5],Non-toxic
same,fold change (FC),[6],0.5
same,inhibition,[7],Dose-dependent effect
same,fold change (FC),[8],0.4
same,fold change (FC),[9],0.7
same,"viability at 24 h, 20 µM",[10],126%
same,"viability at 24 h, 10 µM",[11],111%
same,fold change (FC),[12],0.7
same,Activity,[13],39.8 µM
same,fold change (FC),[14],0.6
same,inhibition,[15],Active
same,"viability at 24 h, 40 µM",[16],98.7%
same,fold change (FC),[17],0.7
same,fold change (FC),[18],0.7
same,fold change (FC),[19],0.6
same,fold change (FC),[20],0.5
same,fold change (FC),[21],0.7
same,fold change (FC),[22],0.6
same,Activity,[23],7.1 µM
same,IC50,[24],25.9 µg/mL
same,fold change (FC),[25],0.6
C[C@@H]1C[C@@H](O)[C@]2(C)CC[C@]3(C)[C@H](CC[C@@H]4[C@@]5(C)CC[C@H](O[C@@H]6O[C@H](CO)[C@@H](O)[C@H](O)[C@H]6O[C@@H]6O[C@H](CO)[C@@H](O)[C@H](O)[C@H]6O)C(C)(C)[C@@H]5CC[C@]43C)[C@@H]2[C@]1(C)O,"viability at 24 h, 80 µM",[26],91.7%
same,Activity,[27],30.8 µM
same,"viability at 24 h, 40 µM",[16],90.3%
same,"viability at 24 h, 120 µM",[28],73.9%
same,Activity,[23],54.5 µM
same,IC50,[24],127 µg/mL
same,Activity,[29],40.4 µM
